Measured values taken from US10174013B2, “Benzimidazole derivatives as kinase inhibitors” (SELVITA S.A., priority 2012, dated 2019).
Structures can show the parent of a compound that is named as a salt. Where two headings read alike, the source gives them in different places.

Key:
Pim-1 = Pim-1 (Homo sapiens (Human), UniProt P11309); test: ADP-Glo Kinase Assay, Pim-1; assay type: biochemical; details: 1 μM compound; for inhibition at 1 µM: read-out: Pim-1 % INH (1 μM)
Description: (§1) Compounds of the present invention were tested for their inhibitory activity against Pim-1, Pim-2, Pim-3, Flt3 wt, Flt3 ITD, CDK2/E and DYRK1. The testing of the compounds was carried out using the ADP-Glo™ Kinase Assay from Promega Corporation (Madison, Wis., USA).
(§2) The ADP-Glo™ Kinase Assay is a luminescent ADP detection assay to measure kinase activity by quantifying the amount of ADP produced during a kinase reaction. The kinase assay is performed in kinase assay buffer (5 mM MOPS, pH 7.5, 5 mM MgCl2, 0.4 mM EDTA, 1.5 mM DTT). Test samples initially dissolved in DMSO at 10 mM were diluted with the assay buffer to 1000 nM. A 30 μL volume/well of a mixture of substrates containing ATP (final ATP concentration in each kinase assay was equal to its apparent ATP Km).
(§3) The assay was performed in two steps: first, after the kinase reaction, an equal volume of ADP-Glo™ Reagent was added to terminate the kinase reaction and deplete the remaining ATP. Second, the Kinase Detection Reagent was added to simultaneously convert ADP to ATP and allowed the newly synthesized ATP to be measured using a luciferase/luciferin reaction. The luminescent signal generated was proportional to the ADP concentration produced and was correlated with kinase activity. A microplate spectrophotometer (Synergy 2 multi-mode microplate reader [BioTek]) was used for detecting the luminescence. The data was normalized and the percent of inhibition was obtained according to the following equation: […]

Pim-2 = Pim-2 (Homo sapiens (Human), UniProt Q9P1W9); test: ADP-Glo Kinase Assay, Pim-2; assay type: biochemical; details: 1 μM compound; for inhibition at 1 µM: read-out: Pim-2 % INH (1 μM)
Sequence of Pim-2 (Q9P1W9 whole entry): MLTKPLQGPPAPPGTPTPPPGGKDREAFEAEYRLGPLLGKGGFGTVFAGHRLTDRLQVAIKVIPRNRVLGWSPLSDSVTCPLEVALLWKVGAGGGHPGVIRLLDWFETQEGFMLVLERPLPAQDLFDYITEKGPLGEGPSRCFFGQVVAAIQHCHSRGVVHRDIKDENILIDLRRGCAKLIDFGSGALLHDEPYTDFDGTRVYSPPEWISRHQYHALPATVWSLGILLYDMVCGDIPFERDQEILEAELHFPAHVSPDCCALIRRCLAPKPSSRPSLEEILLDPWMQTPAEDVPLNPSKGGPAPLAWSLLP
Description: as §1, §2, §3

Pim-3 = Pim-3 (Homo sapiens (Human), UniProt Q86V86); test: ADP-Glo Kinase Assay, Pim-3; assay type: biochemical; details: 1 μM compound; for inhibition at 1 µM: read-out: Pim-3 % INH (1 μM)
Description: as §1, §2, §3

FLT3wt = FLT3wt (Homo sapiens (Human), UniProt P36888); test: ADP-Glo Kinase Assay, Flt3 wt; assay type: biochemical; details: 1 μM compound; for inhibition at 1 µM: read-out: Flt3wt % INH (1 μM)
Sequence of FLT3wt (P36888 27-993): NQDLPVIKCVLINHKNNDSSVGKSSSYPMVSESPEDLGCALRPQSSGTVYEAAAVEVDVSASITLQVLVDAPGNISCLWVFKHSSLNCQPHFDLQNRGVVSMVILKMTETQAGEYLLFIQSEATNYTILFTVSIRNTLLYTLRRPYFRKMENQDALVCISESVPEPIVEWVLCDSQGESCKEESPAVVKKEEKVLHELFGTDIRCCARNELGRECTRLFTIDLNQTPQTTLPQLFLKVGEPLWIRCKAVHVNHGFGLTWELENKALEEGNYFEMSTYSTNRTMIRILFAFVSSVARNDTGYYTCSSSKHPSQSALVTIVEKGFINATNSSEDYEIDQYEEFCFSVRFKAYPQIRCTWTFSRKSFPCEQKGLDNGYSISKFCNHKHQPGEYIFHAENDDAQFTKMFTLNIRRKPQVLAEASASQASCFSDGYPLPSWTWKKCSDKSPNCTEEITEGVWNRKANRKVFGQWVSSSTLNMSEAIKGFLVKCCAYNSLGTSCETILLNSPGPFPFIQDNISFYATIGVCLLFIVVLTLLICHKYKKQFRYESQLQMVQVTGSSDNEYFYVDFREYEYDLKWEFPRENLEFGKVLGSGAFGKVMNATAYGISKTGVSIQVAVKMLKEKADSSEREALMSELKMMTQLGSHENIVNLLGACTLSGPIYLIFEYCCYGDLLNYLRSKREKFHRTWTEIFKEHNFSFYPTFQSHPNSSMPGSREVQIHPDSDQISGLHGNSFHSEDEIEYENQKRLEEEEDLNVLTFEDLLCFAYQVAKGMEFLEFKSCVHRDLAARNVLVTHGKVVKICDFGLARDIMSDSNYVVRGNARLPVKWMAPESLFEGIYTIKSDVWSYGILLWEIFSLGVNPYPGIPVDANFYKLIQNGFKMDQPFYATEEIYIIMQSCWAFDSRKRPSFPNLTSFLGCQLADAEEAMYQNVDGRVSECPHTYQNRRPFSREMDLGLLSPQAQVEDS
Description: as §1, §2, §3

CDK2/E = CDK2/E (Homo sapiens (Human), UniProt P24941); test: ADP-Glo Kinase Assay, CDK2/E; assay type: biochemical; details: 1 μM compound; for inhibition at 1 µM: read-out: CDK2/E % INH (1 μM)
Description: as §1, §2, §3

DYRK1 = DYRK1 (Homo sapiens (Human), UniProt Q13627); test: ADP-Glo Kinase Assay, DYRK1; assay type: biochemical; details: 1 μM compound; for inhibition at 1 µM: read-out: DYRK1A % INH (1 μM)
Description: as §1, §2, §3

MV4-11 cells = test: Growth inhibition, MTS assay, MV4-11; assay type: cell-based, Human; details: MTS cell viability, read-out: MV4-11 ED50
Excerpt: (§4) The following cell lines, were obtained and used in tests as outlined below: • Human myelomonocytic, biphenotypic leukemia MV4-11 cells (harboring a Flt3-ITD mutation); • Human Acute Myeloid Leukemia MOLM16 cells; • Human Acute Myeloid Leukemia MOLM13 cells (harboring a Flt3-ITD mutation); • Human Myeloid Leukemia KG-1 cells; • Human erythroleukemia HEL92 cells; • Human mantle cell lymphoma Jeko-1 cells; • Human hepatocellular carcinoma HepG2 cells; and • Human colon adenocarcinoma SW-480 cells.
(§5) The assays were carried out according to the following protocol, which is described as an example for the MV4-11 cells:
(§6) Ten thousand MV4-11 cells were inoculated into each well of a 96-well microplate (manufactured by Corning Corp.) using Iscove's MDM medium (culture medium) containing 10% fetal calf serum (FCS). The same day, a dimethyl sulfoxide (DMSO) solution of each test compound prepared in a concentration of 10 mmol/L was further diluted with DMSO to the desired concentrations (0.1, 0.5, 1, 2.5, 5 and 10 micromol/L), and the diluted solution was added to each well. The individual wells were further cultured in 5% carbon dioxide at 37° C. for 72 hours. […] Briefly, 10 μl MTS (3-(4,5-Dimethyl-2-thiazolyl)-5-(carboxymethoxyphenyl)-2-(4-sulfophenyl)-2H-tetrazolium was added to each well, and culturing was performed in 5% carbon dioxide at 37° C. for 2 hours. After this incubation and using a microplate spectrophotometer (Synergy 2 multi-mode microplate reader (BioTek)), the absorbance of each well was measured at 490 nm. The value for cells not incubated with a test compound was designated as 100%. By comparing these values with the absorbance difference obtained at the well in which each test compound was added, the cell viability (% viability) after treatment with the test compound was calculated.

HepG2 cells = test: Growth inhibition, MTS assay, HepG2; assay type: cell-based, Human; details: MTS cell viability, read-out: HepG2 ED50
Excerpt: as §4, §5, §6

HEL92 cells = test: Growth inhibition, MTS assay, HEL92; assay type: cell-based, Human; details: 72 hours, MTS cell viability; read-out: HEL92 ED50
Excerpt: as §4, §5, §6

Sequence of Pim-1 (P11309 whole entry): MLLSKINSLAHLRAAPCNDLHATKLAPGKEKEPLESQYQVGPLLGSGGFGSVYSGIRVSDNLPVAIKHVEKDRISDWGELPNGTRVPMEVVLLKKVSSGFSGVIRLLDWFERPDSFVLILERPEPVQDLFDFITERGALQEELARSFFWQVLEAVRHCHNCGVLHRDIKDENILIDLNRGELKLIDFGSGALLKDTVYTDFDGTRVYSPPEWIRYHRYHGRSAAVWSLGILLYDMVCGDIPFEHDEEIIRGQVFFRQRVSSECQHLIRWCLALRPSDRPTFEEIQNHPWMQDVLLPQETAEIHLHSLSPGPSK

Compound | Pim-1 % INH (1 μM) (Pim-1) [%] | Pim-2 % INH (1 μM) (Pim-2) [%] | Pim-3 % INH (1 μM) (Pim-3) [%] | Flt3wt % INH (1 μM) (FLT3wt) [%] | CDK2/E % INH (1 μM) (CDK2/E) [%] | DYRK1A % INH (1 μM) (DYRK1) [%] | IC50 (MV4-11 cells; 72 hours) [nM] | IC50 (HepG2 cells; 72 hours) [nM] | inhibition at 1 µM (Pim-1) [%] | inhibition at 1 µM (Pim-2) [%] | inhibition at 1 µM (Pim-3) [%] | inhibition at 1 µM (FLT3wt) [%] | inhibition at 1 µM (CDK2/E) [%] | inhibition at 1 µM (DYRK1) [%] | IC50 (MV4-11 cells; Homo sapiens, MV4-11, 72 h) [nM] | IC50 (HepG2 cells; Homo sapiens, HepG2, 72 h) [nM] | IC50 (HEL92 cells) [nM]
N[C@@H]1CCN(c2nc3c([N+](=O)[O-])c(Br)c(Br)cc3n2CC2CC2)C1 [Example 1BG] | >95 | 82 | >95 | 23 | <5 | >95 | 1600 | 4000 | – | – | – | – | – | – | – | – | –
CC(C)n1c(NCC2CNCCO2)nc2c(C#N)c(Br)c(Br)cc21 (centres unmarked) [Example 1BN] | – | – | – | – | – | – | – | – | > 95 | 29 | 77 | < 5 | < 5 | 21 | 1900 | 5100 | –
CCn1c(Nc2ccccc2N)nc2c([N+](=O)[O-])c(Br)c(Br)cc21 [Example 22N, 1-N-(5,6-dibromo-1-ethyl-4-nitro-1H-1,3-benzodiazol-2-yl)benzene-1,2-diamine] | – | – | – | – | – | – | – | – | 82 | 23 | 44 | < 5 | < 5 | 21 | 2600 | 4200 | –
CC(C)n1c(N[C@H]2CNC[C@@H]2O)nc2c([N+](=O)[O-])c(Br)c(Br)cc21.Cl [Example 1CE] | >95 | 53 | 76 | 12 | <5 | 37 | 2800 | 3200 | – | – | – | – | – | – | – | – | –
CCn1c(N2CCNCC2)nc2c(C(F)(F)F)c(Br)c(Br)cc21 [Example 9A, 5,6-dibromo-1-ethyl-2-(piperazin-1-yl)-4-(trifluoromethyl)-1H-1,3-benzodiazolehydrochloride] | – | – | – | – | – | – | – | – | > 95 | 15 | 66 | 76 | < 5 | 77 | 300 | 1500 | –
CCn1c(N2CC[C@@H](N)C2)nc2c([N+](=O)[O-])c(Cl)c(Cl)cc21 [Example 1CO] | >95 | 25 | 69 | 12 | 27 | 30 | 4300 | 3900 | – | – | – | – | – | – | – | – | –
CC(C)n1c(N2CCCC(CO)C2)nc2c([N+](=O)[O-])c(Br)c(Br)cc21 (centres unmarked) [Example 22H, {1-[5,6-dibromo-4-nitro-1-(propan-2-yl)-1H-1,3-benzodiazol-2-yl]piperidin-3-yl}methanol] | – | – | – | – | – | – | – | – | > 95 | – | 71 | < 5 | 16 | – | – | – | –
CCn1c(NCC(O)CN)nc2c([N+](=O)[O-])c(Br)c(Br)cc21 (centres unmarked) [Example 1G] | – | – | – | – | – | – | – | – | 76 | 34 | 57 | 6 | < 5 | 12 | – | – | –
CC(C)n1c(NCC(O)CN)nc2c([N+](=O)[O-])c(Br)c(Br)cc21 (centres unmarked) [Example 1W] | – | – | – | – | – | – | – | – | 89 | – | 92 | < 5 | < 5 | 40 | – | – | –
CC(C)n1c(N2CCNC[C@H]2C)nc2c([N+](=O)[O-])c(Br)c(Br)cc21 [Example 1AO] | 95 | – | 59 | 26 | – | 15 | 600 | 1700 | – | – | – | – | – | – | – | – | 3800
CC(C)n1c(N2CCOCC2)nc2c([N+](=O)[O-])c(Br)c(Br)cc21 [Example 22K, 5,6-dibromo-2-(morpholin-4-yl)-4-nitro-1-(propan-2-yl)-1H-1,3-benzodiazole] | – | – | – | – | – | – | – | – | > 95 | 40 | 85 | 23 | < 5 | 28 | 4100 | – | –
